Reference: patent US20020183384A1, “Methods of treating nuclear factor-kappa B mediated diseases and disorders” (priority 2001, published 2002)

The molecules below were run on NF-κB mediated transcription (assay: NF-κB driven β-lactamase reporter assay in ECV-304 NF-κB.βlaZ cells (AURORA CCF2 fluorescence)). Settings: 10 μM compound; ECV-304 NF-κB.βlaZ cells stimulated with 10 ng/mL TNF-α or 100 pg/mL IL-1β, 6 hours at 37° C.; inhibition of maximum blue/green ratio.
Format: cell-based, human
Summary of the method: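 Blue/green (460/530 nm, excitation 395 nm) CCF2 emission ratio quantified NF-κB-driven β-lactamase expression in the stably transfected endothelial-like ECV-304 clone 1E8.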
With `CC(C)c1cccc(C(C)C)c1NC(=O)NS(=O)(=O)N(CC1CCCO1)CC1CCCO1` (stereo not shown) [Example 41, N-[2,6-bis(1-methylethyl)phenyl]-N′-[[bis[(tetrahydro-2-furanyl)methyl]amino]sulfonyl]-urea,] the “Percent Inhibition at 10 μM” value was under 10%.
`CC(C)c1cccc(C(C)C)c1OS(=O)(=O)NC(=O)OC1C2CC3CC(C2)CC1C3` (stereo not shown) [Example 131, Carbamic acid, [[2,6-bis(1-methylethyl)phenoxy]sulfonyl]-, tricyclo[3.1.1.1^3,7]-dec-2-yl ester] was tested, and the “Percent Inhibition at 10 μM” value was 33.39%.
In the case of `CC(C)c1cccc(C(C)C)c1NC(=O)NS(=O)(=O)Nc1c(C(C)C)cccc1C(C)C` [Example 7, Urea, N-[2 ,6-bis(1-methylethyl)phenyl]-N′-[[[2,6-bis(1-methylethyl)phenyl]-amino]sulfonyl]-], the “Percent Inhibition at 10 μM” value is reported as 37.04%.

Same assay, conditions: Homo sapiens, ECV-304, 6 h, 10 μM compound; ECV-304 NF-κB.βlaZ cells stimulated with 10 ng/mL TNF-α or 100 pg/mL IL-1β, 6 hours at 37° C.; inhibition of maximum blue/green ratio; read-out: Percent Inhibition at 10 μM
For `CC(C)c1cc(C(C)C)c(CC(=O)NS(=O)(=O)Oc2c(C(C)C)cc(O)cc2C(C)C)c(C(C)C)c1` [Example 180, [(2,4,6-Triisopropyl-phenyl)-acetyl]-sulfamic acid 4-hydroxy-2,6-diisopropyl-phenyl ester], the inhibition at 10 µM was 92%.
For `CCCCCCCCC(C)S(=O)(=O)NC(=O)Nc1c(C(C)C)cccc1C(C)C` (stereo not shown) [Example 244, N-[2,6-bis(1-methylethyl)phenyl]-N′-(2-decylsulfonyl)urea], the inhibition at 10 µM was under 10%.
`CC(C)c1cc(C(C)C)c(CC(=O)NS(=O)(=O)Oc2c(C(C)C)cc(NS(=O)(=O)c3cccs3)cc2C(C)C)c(C(C)C)c1` [Example 225, [(2,4,6-Triisopropyl-phenyl)-acetyl]-sulfamic acid 2,6-diisopropyl-4-(thiophene-2-sulfonylamino)-phenyl ester] gave an inhibition at 10 µM of 26.4%.
`CC(C)c1cccc(C(C)C)c1OS(=O)(=O)NC(=O)C(=O)c1ccccc1` [Example 157, (Oxo-phenyl-acetyl)-sulfamic acid 2,6-diisopropyl-phenyl ester] showed an inhibition at 10 µM of under 10%.
`COc1cc(C(C)C)c(OS(=O)(=O)NC(=O)Cc2c(C(C)C)cc(C(C)C)cc2C(C)C)c(C(C)C)c1` [Example 192, [(2,4,6-Triisopropyl-phenyl)-acetyl]-sulfamic acid 2,6-diisopropyl-4-methoxy-phenyl ester] gave an inhibition at 10 µM of 63.9%.
With `CC(C)c1cc(C(C)C)c(CC(=O)NS(=O)(=O)Oc2c(C(C)C)cc(F)cc2C(C)C)c(C(C)C)c1` [Example 185, [(2,4,6-Triisopropyl-phenyl)-acetyl]-sulfamic acid 4-fluoro-2,6-diisopropyl-phenyl ester] the inhibition at 10 µM was 73.9%.
`CC(C)c1cccc(C(C)C)c1NS(=O)(=O)NC(=O)NC(c1ccccc1)c1ccccc1` [Example 18, N-[[[2,6-bis(1-methylethyl)phenyl]amino]sulfonyl]-N′-(diphenylmethyl)-urea] gave an inhibition at 10 µM of 35.9%.
With `CC(C)c1cc(C(C)(C)O)cc(C(C)C)c1CC(=O)NS(=O)(=O)Oc1c(C(C)C)cccc1C(C)C` [Example 202, {[4-(1-Hydroxy-1-methyl-ethyl)-2,6-diisopropyl-phenyl]-acetyl}-sulfamic acid 2,6-diisopropyl-phenyl ester] the inhibition at 10 µM was 25.4%.
Molecule `CCCCCCCCN(CCCCCCCC)S(=O)(=O)NC(=O)Nc1c(C(C)C)cccc1C(C)C` [Example 23, N-[2,6-bis(1-methylethyl)phenyl]-N′-[(dioctylamino)sulfonyl]-urea] has an inhibition at 10 µM of 38.7%.
For `CCCCCCCCCCCCCCN(C)S(=O)(=O)NC(=O)Nc1c(C(C)C)cccc1C(C)C` [Example 84, Urea, N-[2,6-bis(1-methylethyl)phenyl]-N′-[(methyltetradecylamino)-sulfonyl]-], the inhibition at 10 µM was 44.8%.
`CSCCC(NC(=O)OC(C)(C)C)C(=O)Nc1cc(C(C)C)c(OS(=O)(=O)NC(=O)Cc2c(C(C)C)cc(C(C)C)cc2C(C)C)c(C(C)C)c1` (stereo not shown) [Example 214, [1-(3,5-Diisopropyl-4-{[(2,4,6-triisopropyl-phenyl)-acetyl]sulfamoyloxy}-phenylcarbamoyl)-3-methylsulfanyl-propyl]-carbamic acid tert-butyl ester] gave an inhibition at 10 µM of 71.7%.
For `CC(C)c1cccc(C(C)C)c1OS(=O)(=O)NC(=O)C1(c2ccc([N+](=O)[O-])cc2)CCCC1` [Example 213, [1-(4-Nitro-phenyl)-cyclopentanecarbonyl]-sulfamic acid 2,6-diisopropyl-phenyl ester], the inhibition at 10 µM was 19.7%.
With `CC(C)c1cccc(C(C)C)c1OS(=O)(=O)NC(=O)OC12CC3CC(CC(C3)C1)C2` [Example 136, Carbamic acid, [[2,6-bis(1-methylethyl)phenoxy]sulfonyl]-, tricyclo[3.3.1.1^3,7]-dec-1-yl ester] the inhibition at 10 µM was under 10%.
Work on `CC(C)c1cccc(C(C)C)c1NC(=O)NS(=O)(=O)NC(c1ccccc1)c1ccccc1` [Example 8, Urea, N-[2,6-bis(1-methylethyl)phenyl]-N′-[[(diphenylmethyl)amino]-sulfonyl]-] yielded an inhibition at 10 µM of under 10%.
For `CC(C)c1cccc(C(C)C)c1OS(=O)(=O)NC(=O)C(c1ccccc1)(c1ccccc1)c1ccccc1` [Example 163, Triphenylacetyl-sulfamic acid 2,6-diisopropyl-phenyl ester], the inhibition at 10 µM was 62.4%.
With `CC(C)c1cccc(C(C)C)c1NC(=O)NS(=O)(=O)NCC(c1ccccc1)c1ccccc1` [Example 9, Urea, N-[2,6-bis(1-methylethyl)phenyl]-N′-[[(2,2-diphenylethyl)amino]-sulfonyl]-] the inhibition at 10 µM was 33.1%.
With `Cc1cc(C)c(CC(=O)NS(=O)(=O)Oc2c(C(C)C)cccc2C(C)C)c(C)c1` [Example 146, [(2,4,6-Trimethyl-phenyl)-acetyl]-sulfamic acid 2,6-diisopropyl-phenyl ester] the inhibition at 10 µM was 28.3%.
In the case of `CCCCCCCCCCCCOC(=O)NS(=O)(=O)Oc1c(C(C)C)cccc1C(C)C` [Example 55, Carbamic acid, [[2,6-bis(1-methylethyl)phenoxy]sulfonyl]-, dodecyl ester], the inhibition at 10 µM is reported as 55.1%.
`CCCCCCCCCCCCOS(=O)(=O)NC(=O)Sc1c(C(C)C)cccc1C(C)C` [Example 93, Carbamothioic acid, [(dodecyloxy)sulfonyl]-, S-[2,6-bis(1-methylethyl)-phenyl] ester] showed an inhibition at 10 µM of 14.5%.
In the case of `CC(=O)OC(C(=O)NS(=O)(=O)Oc1c(C(C)C)cccc1C(C)C)c1c(C(C)C)cc(C(C)C)cc1C(C)C` (stereo not shown) [Example 154, Acetic acid 2-(2,6-diisopropyl-phenoxysulfonylamino)-2-oxo-1-(2,4,6-triisopropyl-phenyl)-ethyl ester], the inhibition at 10 µM is reported as 77.7%.
Molecule `CC(C)c1cccc(C(C)C)c1NC(=O)NS(=O)(=O)N(C1CCCCC1)C1CCCCC1` [Example 78, Urea, N-[2,6-bis(1-methylethyl)phenyl]-N′-[(dicyclohexylamino)-sulfonyl]-] has an inhibition at 10 µM of 40.9%.
`C=CCN(CC)S(=O)(=O)NC(=O)Nc1c(C(C)C)cccc1C(C)C` [Example 73, Urea, N-[2,6-bis(1-methylethyl)phenyl]-N′-[[ethyl(2-propenyl)amino]-sulfonyl]-] gave an inhibition at 10 µM of under 10%.
Molecule `CC(=O)Nc1cc(C(C)C)c(OS(=O)(=O)NC(=O)Cc2c(C(C)C)cc(C(C)C)cc2C(C)C)c(C(C)C)c1` [Example 196, [(2,4,6-Triisopropyl-phenyl)-acetyl]-sulfamic acid 4-acetylamino-2,6-diisopropyl-phenyl ester] has an inhibition at 10 µM of 73.1%.

Same assay, conditions: Homo sapiens; 10 μM compound; ECV-304 NF-κB.βlaZ cells stimulated with 10 ng/mL TNF-α or 100 pg/mL IL-1β, 6 hours at 37° C.; inhibition of maximum blue/green ratio; read-out: Percent Inhibition at 10 μM
`CC(C)c1cccc(C(C)C)c1OC(=O)NS(=O)(=O)N(Cc1ccccc1)Cc1ccccc1` [Example 25, Carbamic acid, [[bis(phenylmethyl)amino]sulfonyl]-, 2,6-bis(1-methylethyl)-phenyl ester] was tested, and the inhibition at 10 µM was 33.2%.
For `CCCCCCCCN(C)S(=O)(=O)NC(=O)Oc1c(C(C)(C)C)cc(C)cc1C(C)(C)C` [Example 43, Carbamic acid, [(methyloctylamino)sulfonyl]-, 2,6-bis(1,1-dimethylethyl)-4-methylphenyl ester], the inhibition at 10 µM was 70.2%.
Molecule `CC(C)(C)c1cccc(C(C)(C)C)c1OC(=O)NS(=O)(=O)Nc1ccccc1Cc1ccccc1` [Example 221, Carbamic acid, [[[2-(phenylmethyl)phenyl]amino]sulfonyl]-, 2,6-bis(1,1-dimethylethyl)phenyl ester] has an inhibition at 10 µM of 44.7%.
Work on `CC(C)c1cc(C(C)C)c(OS(=O)(=O)NC(=O)Oc2c(C(C)C)cccc2C(C)C)c(C(C)C)c1` [Example 125, Carbamic acid, [[2,4,6-tris(1-methylethyl)phenoxy]sulfonyl]-, 2,6-bis(1-methylethyl)phenyl ester] yielded an inhibition at 10 µM of 11%.
Work on `CC(C)c1cccc(C(C)C)c1OC(=O)NS(=O)(=O)Nc1ccccc1` [Example 13, Carbamic acid, [(phenylamino)sulfonyl]-, 2,6-bis(1-methylethyl)phenyl ester] yielded an inhibition at 10 µM of under 10%.
Work on `CC(C)c1cccc(C(C)C)c1OC(=O)NS(=O)(=O)Oc1c(C(C)C)cccc1C(C)C` [Example 28, Carbamic acid, [[2,6-bis(1-methylethyl)phenoxy]sulfonyl]-, 2,6-bis(1-methylethyl)phenyl ester] yielded an inhibition at 10 µM of 30.2%.
`CC(C)c1cccc(C(C)C)c1NS(=O)(=O)NC(=O)Oc1c(C(C)(C)C)cccc1C(C)(C)C` [Example 5, Carbamic acid, [[[2,6-bis(1-methylethyl)phenyl]amino]sulfonyl]-, 2,6-bis(1,1-dimethylethyl)phenyl ester] gave an inhibition at 10 µM of 56.4%.
In the case of `CC(=O)c1cc(C(C)C)c(OC(=O)NS(=O)(=O)Oc2c(C(C)C)cccc2C(C)C)c(C(C)C)c1` [Example 183, Carbamic acid, [[2,6-bis(1-methylethyl)phenoxy]sulfonyl]-, 4-acetyl-2,6-bis(1-methylethyl)phenyl ester], the inhibition at 10 µM is reported as under 10%.
